From ChEMBL document CHEMBL5576158, “Recent insights of PROTAC developments in inflammation-mediated and autoimmune targets: a critical review” (RSC Med Chem, 2024)
Each block holds one compound with its values, some of them ahead of it.

Key:
[1] = target: Receptor-interacting serine/threonine-protein kinase 2 (Homo sapiens) (UniProt O43353); assay: PROTAC activity at IAP/RIPK2 in human THP-1 cells assessed as […] by Western blot analysis
[2] = target: Protein cereblon/Protein deacetylase HDAC6 (Homo sapiens, UniProt Q9UBN7+Q96SW2); assay: PROTAC activity at CRBN/HDAC6 in human MM1.S cells assessed as HDAC6 degradation incubated for 18 hrs by immunoblot analysis; type: cell-based
[3] = target: T1, Tyrosine-protein kinase ITK/TSK (Homo sapiens) (UniProt Q08881); assay: Degradation of ITK (unknown origin) at 1 uM relative to control
T1 sequence (whole entry): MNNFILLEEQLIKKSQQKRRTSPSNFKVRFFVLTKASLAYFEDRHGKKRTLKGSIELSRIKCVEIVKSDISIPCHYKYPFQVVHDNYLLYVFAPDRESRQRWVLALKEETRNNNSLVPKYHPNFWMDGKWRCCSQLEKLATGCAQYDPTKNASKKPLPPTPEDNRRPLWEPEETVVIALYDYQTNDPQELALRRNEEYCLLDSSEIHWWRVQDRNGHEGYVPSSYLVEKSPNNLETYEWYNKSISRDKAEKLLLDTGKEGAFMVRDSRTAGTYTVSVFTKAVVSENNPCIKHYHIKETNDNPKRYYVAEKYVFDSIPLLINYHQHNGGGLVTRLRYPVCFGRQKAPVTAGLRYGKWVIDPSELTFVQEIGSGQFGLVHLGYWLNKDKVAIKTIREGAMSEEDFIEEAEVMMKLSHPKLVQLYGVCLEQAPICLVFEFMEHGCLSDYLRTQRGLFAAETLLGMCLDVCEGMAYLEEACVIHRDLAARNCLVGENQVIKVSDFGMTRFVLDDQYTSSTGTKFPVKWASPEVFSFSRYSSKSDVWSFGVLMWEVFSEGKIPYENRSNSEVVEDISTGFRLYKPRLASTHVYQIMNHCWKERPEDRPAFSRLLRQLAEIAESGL

[4] = target: T2, Tyrosine-protein kinase ITK/TSK (Homo sapiens, UniProt Q08881); assay: Inhibition of ITK (unknown origin)
T2 sequence (Q08881 whole entry): T1 sequence (whole entry)

[5] = target: Protein cereblon/Macrophage migration inhibitory factor (Homo sapiens) (UniProt P14174+Q96SW2); assay: PROTAC activity at E3 ubiquitin ligase/MIF in human A549 cells assessed as induction of MIF degradation by Western blot analysis; type: cell-based
[6] = target: Protein cereblon/Histone acetyltransferase KAT2A (Homo sapiens) (UniProt Q92830+Q96SW2); assay: PROTAC activity at GCN5/CRBN in human THP-1 cells assessed as induction of […] degradation by measuring maximal efficacy at 30 nM measured for 10 mins by Western blot analysis relative to control; type: cell-based
[7] = target: Protein cereblon/Histone acetyltransferase KAT2B (Homo sapiens) (UniProt Q92831+Q96SW2); assay: PROTAC activity at PCAF/CRBN in human THP-1 cells assessed as induction of PCAF degradation by measuring maximal efficacy at 30 nM measured for 10 mins by Western blot analysis relative to control; type: cell-based
[8] = target: T3, von Hippel-Lindau disease tumor suppressor/Interleukin-1 receptor-associated kinase 3 (Homo sapiens, UniProt Q9Y616+P40337); assay: PROTAC activity at IRAK3/VHL E3 ligase in human THP-1 cells assessed as induction of IRAK3 degradation by Immuno-blot analysis; type: cell-based
[9] = target: T3, von Hippel-Lindau disease tumor suppressor/Interleukin-1 receptor-associated kinase 3; assay: PROTAC activity at IRAK3/VHL E3 ligase in human THP-1 cells assessed as induction of IRAK3 degradation by measuring maximal efficacy incubated for 24 hrs by Western blot analysis; type: cell-based
[10] = target: Protein cereblon/Histone deacetylase 8 (Homo sapiens, UniProt Q9BY41+Q96SW2); assay: PROTAC activity at CRBN/HDAC8 in human Jurkat T cells assessed as induction of degradation of HDAC8 by Western blot analysis; type: cell-based
[11] = target: von Hippel-Lindau disease tumor suppressor/Receptor-interacting serine/threonine-protein kinase 2 (Homo sapiens) (UniProt O43353+P40337); assay: PROTAC activity at VHL/RIPK2 in human THP-1 cells assessed as RIPK2 degradation by measuring maximal efficacy at 10 nM measured after 16 hrs by Western blot analysis relative to control; type: cell-based
[12] = target: Protein cereblon/Indoleamine 2,3-dioxygenase 1 (Homo sapiens) (UniProt P14902+Q96SW2); assay: PROTAC activity against CRBN/IDO1 in human HeLa cells assessed as induction of IDO1 degradation at 2 uM incubated for 24 hrs by Western blot analysis relative to control; type: cell-based
[13] = target: T4, Macrophage migration inhibitory factor (Homo sapiens, UniProt P14174); assay: Binding affinity to MIF in human A549 cells assessed as inhibition constant; type: cell-based
T4 sequence (P14174 whole entry): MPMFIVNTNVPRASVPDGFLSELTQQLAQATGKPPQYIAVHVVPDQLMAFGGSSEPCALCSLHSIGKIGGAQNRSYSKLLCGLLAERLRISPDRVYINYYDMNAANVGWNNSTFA

[14] = target: von Hippel-Lindau disease tumor suppressor/Tyrosine-protein kinase BTK (Homo sapiens, UniProt Q06187+P40337, C481S); assay: PROTAC activity at VHL/BTK C481S mutant in human THP-1 cells assessed as induction of BTK degradation incubated for 24 hrs by immunoblotting analysis; type: cell-based
[15] = target: Protein cereblon/Interleukin-1 receptor-associated kinase 4 (Homo sapiens, UniProt Q9NWZ3+Q96SW2); assay: PROTAC activity at CRBN/IRAK4 in human THP-1 cells assessed as induction of IRAK4 degradation by Immuno-blotting analysis; type: cell-based
[16] = Cytotoxicity against mouse RAW264.7 cells assessed as reduction in cell growth; type: toxicity, cell-based

Sequence of Protein cereblon/Macrophage migration inhibitory factor (Homo sapiens) (Q96SW2 whole entry partner, one chain of several): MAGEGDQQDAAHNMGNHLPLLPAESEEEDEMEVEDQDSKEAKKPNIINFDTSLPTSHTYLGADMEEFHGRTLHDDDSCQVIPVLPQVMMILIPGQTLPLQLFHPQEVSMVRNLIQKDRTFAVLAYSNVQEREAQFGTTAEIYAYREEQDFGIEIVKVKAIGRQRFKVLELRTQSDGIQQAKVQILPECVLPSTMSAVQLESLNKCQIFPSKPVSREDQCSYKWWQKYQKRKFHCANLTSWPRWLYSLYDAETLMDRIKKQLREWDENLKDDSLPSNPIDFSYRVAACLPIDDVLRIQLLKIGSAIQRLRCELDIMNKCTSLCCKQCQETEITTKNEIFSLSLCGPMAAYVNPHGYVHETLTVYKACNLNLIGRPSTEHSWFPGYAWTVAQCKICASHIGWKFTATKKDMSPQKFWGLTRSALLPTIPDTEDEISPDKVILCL
Sequence of Receptor-interacting serine/threonine-protein kinase 2 (Homo sapiens) (O43353 whole entry, looked up): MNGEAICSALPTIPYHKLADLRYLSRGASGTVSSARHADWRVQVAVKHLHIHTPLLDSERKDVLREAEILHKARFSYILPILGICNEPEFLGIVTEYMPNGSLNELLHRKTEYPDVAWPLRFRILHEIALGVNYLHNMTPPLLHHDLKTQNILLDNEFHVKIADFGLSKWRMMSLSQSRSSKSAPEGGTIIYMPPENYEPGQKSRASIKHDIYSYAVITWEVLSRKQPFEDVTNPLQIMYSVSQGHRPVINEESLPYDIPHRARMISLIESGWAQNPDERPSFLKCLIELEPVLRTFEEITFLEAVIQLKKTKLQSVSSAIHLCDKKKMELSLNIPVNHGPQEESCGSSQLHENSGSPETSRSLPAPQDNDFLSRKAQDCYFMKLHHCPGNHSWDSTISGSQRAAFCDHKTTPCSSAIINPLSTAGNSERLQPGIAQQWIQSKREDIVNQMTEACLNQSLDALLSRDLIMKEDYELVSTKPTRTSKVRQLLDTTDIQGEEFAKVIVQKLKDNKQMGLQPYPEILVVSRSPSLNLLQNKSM
Sequence of Protein cereblon/Interleukin-1 receptor-associated kinase 4 (Q9NWZ3 whole entry): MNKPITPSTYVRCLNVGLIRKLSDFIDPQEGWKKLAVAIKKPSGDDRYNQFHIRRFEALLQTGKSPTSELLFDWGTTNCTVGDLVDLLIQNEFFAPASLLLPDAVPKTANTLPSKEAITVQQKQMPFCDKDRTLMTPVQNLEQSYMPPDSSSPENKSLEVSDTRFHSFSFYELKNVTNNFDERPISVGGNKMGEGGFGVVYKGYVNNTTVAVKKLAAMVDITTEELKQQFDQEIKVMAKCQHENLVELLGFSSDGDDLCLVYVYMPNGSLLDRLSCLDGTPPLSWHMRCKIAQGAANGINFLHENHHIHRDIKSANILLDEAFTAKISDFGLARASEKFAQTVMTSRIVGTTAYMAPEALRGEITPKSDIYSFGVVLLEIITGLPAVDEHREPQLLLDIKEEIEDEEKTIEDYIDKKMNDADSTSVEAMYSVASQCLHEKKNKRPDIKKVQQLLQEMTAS
Sequence of Protein cereblon/Interleukin-1 receptor-associated kinase 4 (Q96SW2 whole entry): as the sequence (Q96SW2 whole entry partner, one chain of several) above
Sequence of von Hippel-Lindau disease tumor suppressor/Receptor-interacting serine/threonine-protein kinase 2 (Homo sapiens) (O43353 whole entry, looked up): as the sequence (O43353 whole entry, looked up) above
Sequence of von Hippel-Lindau disease tumor suppressor/Receptor-interacting serine/threonine-protein kinase 2 (Homo sapiens) (P40337 whole entry, looked up): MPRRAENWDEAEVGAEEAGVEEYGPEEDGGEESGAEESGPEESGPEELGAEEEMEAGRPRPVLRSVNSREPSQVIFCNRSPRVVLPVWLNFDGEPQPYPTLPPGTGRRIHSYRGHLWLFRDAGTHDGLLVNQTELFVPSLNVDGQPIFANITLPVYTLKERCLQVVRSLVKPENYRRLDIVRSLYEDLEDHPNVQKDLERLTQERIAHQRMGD
Sequence of Protein cereblon/Protein deacetylase HDAC6 (Q9UBN7 whole entry): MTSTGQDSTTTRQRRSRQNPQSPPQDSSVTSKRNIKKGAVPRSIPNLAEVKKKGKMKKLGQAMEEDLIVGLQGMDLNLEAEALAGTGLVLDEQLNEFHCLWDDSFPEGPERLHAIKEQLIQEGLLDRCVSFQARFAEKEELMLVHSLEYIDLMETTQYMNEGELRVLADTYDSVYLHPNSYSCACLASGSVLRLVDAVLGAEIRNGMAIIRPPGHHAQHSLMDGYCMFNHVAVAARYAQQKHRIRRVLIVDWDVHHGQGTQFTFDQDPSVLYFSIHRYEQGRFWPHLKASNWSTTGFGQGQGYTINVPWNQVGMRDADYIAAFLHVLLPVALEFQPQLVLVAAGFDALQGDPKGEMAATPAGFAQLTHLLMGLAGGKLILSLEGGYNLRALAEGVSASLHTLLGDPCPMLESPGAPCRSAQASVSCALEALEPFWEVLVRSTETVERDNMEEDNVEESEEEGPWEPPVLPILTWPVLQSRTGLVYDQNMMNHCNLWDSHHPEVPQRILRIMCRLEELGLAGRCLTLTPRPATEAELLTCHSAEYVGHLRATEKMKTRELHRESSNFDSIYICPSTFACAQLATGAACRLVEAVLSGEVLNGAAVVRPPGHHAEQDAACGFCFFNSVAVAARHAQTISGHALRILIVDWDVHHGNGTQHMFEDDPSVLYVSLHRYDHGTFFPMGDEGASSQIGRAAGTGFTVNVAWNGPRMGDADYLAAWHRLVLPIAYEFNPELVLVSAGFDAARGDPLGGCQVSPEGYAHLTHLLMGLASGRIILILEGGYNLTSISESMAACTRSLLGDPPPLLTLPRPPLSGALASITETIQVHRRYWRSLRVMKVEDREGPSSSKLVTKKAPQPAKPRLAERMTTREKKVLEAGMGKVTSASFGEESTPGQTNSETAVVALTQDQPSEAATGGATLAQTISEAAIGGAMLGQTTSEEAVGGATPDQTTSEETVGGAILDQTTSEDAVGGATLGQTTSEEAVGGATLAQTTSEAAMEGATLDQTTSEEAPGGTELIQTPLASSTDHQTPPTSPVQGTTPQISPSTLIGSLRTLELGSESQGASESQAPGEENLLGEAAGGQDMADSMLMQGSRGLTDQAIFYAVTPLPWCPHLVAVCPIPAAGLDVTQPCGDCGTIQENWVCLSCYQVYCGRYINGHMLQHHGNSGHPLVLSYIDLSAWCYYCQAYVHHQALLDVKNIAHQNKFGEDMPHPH
Sequence of Protein cereblon/Protein deacetylase HDAC6 (Q96SW2 whole entry): as the sequence (Q96SW2 whole entry partner, one chain of several) above

- pDC50 [1]: 9.4
Compound: CN[C@H](C)C(=O)N[C@@H](C(=O)N1Cc2cc(OCCOCCOCCOCCOc3cc4nccc(Nc5ccc6scnc6c5)c4cc3S(=O)(=O)C(C)(C)C)ccc2C[C@H]1C(=O)N[C@H]1CCCc2ccccc21)C(C)(C)C

- DC50 [2]: 0.0019 µM
Compound: CCCCN(Cc1ccc(C(=O)O)cc1)C(=O)Nc1ccc(OCCCCCCCn2cc(CNCc3ccc(-c4cccc5c4CN(C4CCC(=O)NC4=O)C5=O)cc3)nn2)cc1 (centres undefined)

- degradation [3]: > 90%
- pDC50 [1]: 9.4
- IC50 [4]: 0.0176 µM
Compound: COc1cc(C)c(Sc2cnc(NC(=O)c3ccc(N4CCN(CCCCCCNC(=O)COc5cccc6c5C(=O)N(C5CCC(=O)NC5=O)C6=O)CC4)cc3)s2)cc1C(=O)N1CCN(C(C)=O)CC1 (centres undefined)

- Emax [6]: 80%
- Emax [7]: 80%
Compound: CN1C[C@H](Nc2cnn(C)c(=O)c2Br)C[C@H](c2ccc(C(=O)N(C)CCCN(C)c3ccc(CCCOc4cccc5c4C(=O)N(C4CCC(=O)NC4=O)C5=O)cc3)cc2)C1 (some centres undefined)

- DC50 [10]: 0.702 µM
Compound: O=C1CCC(N2C(=O)c3ccc(NCCCCCCCCCCCNC(=O)c4cccc(SCc5cn(-c6cccc(C(=O)NO)c6)nn5)c4)cc3C2=O)C(=O)N1 (centres undefined)

- Emax [11]: 95%
Compound: Cc1ncsc1-c1ccc(CNC(=O)[C@@H]2C[C@@H](O)CN2C(=O)[C@@H](NC(=O)COCCOCCOCCOCCOc2cc3nccc(Nc4ccc5scnc5c4)c3cc2S(=O)(=O)C(C)(C)C)C(C)(C)C)cc1

- Emax [12]: 93%
Compound: O=C1CCC(N2C(=O)c3cccc(NCCOCCOCCOCCOCCOCCOCCOCCNCCNc4nonc4/C(=N/O)Nc4ccc(F)c(Br)c4)c3C2=O)C(=O)N1 (centres undefined)

- Emax [5]: 55%
Compound: CN1C(=O)CCC(N2C(=O)c3cccc(NCCCCCCCC(=O)Nc4ccc(N5Cc6ccc(O)cc6OC5=O)cc4)c3C2=O)C1=O (centres undefined)

- DC50 [15]: 0.405 µM
Compound: CC(C)Nc1cc(C(=O)N[C@H]2CC[C@@H](C(=O)NCCOCCNC(=O)COc3cccc4c3C(=O)N(C3CCC(=O)NC3=O)C4=O)CC2)nc(-n2ccc3cc(C#N)cnc32)c1 (some centres undefined)

- DC50 [15]: 0.19 µM
Compound: CC(C)Nc1cc(C(=O)N[C@H]2CC[C@@H](C(=O)NCCCCCNC(=O)COc3cccc4c3C(=O)N(C3CCC(=O)NC3=O)C4=O)CC2)nc(-n2ccc3cc(C#N)cnc32)c1 (some centres undefined)

More lines, now with the values behind:

Compound: O=C1CCC(N2C(=O)c3cccc(NCCCCCCC(=O)Nc4ccc(N5Cc6ccc(O)cc6OC5=O)cc4)c3C2=O)C(=O)N1 (centres undefined)
- Emax [5]: 55%

Compound: Cc1ncsc1-c1ccc([C@H](C)NC(=O)[C@@H]2C[C@@H](O)CN2C(=O)[C@@H](NC(=O)[C@H]2CC[C@H](C(=O)N3CCC(n4cc(-c5cnc(N)c(O[C@@H](C)c6c(Cl)ccc(F)c6Cl)c5)cn4)CC3)CC2)C(C)(C)C)cc1
- DC50 [8]: 0.094 µM
- Emax [9]: 95%

Compound: O=C1CCC(N2C(=O)c3cccc(NCCCCCCCC(=O)Nc4ccc(N5Cc6ccc(O)cc6OC5=O)cc4)c3C2=O)C(=O)N1 (centres undefined)
- Emax [5]: 91%

Compound: O=C1CCC(N2C(=O)c3cccc(NCCCC(=O)Nc4ccc(N5Cc6ccc(O)cc6OC5=O)cc4)c3C2=O)C(=O)N1 (centres undefined)
- Ki [13]: 0.055 µM

Compound: CN[C@@H](C)C(=O)N[C@H](C(=O)N1C[C@@H](NC(=O)OCCOCCOCCOCCN2CCN(CCCC(=O)N3CCC[C@@H](n4nc(-c5ccc(Oc6ccccc6)cc5)c5c(N)ncnc54)C3)CC2)C[C@H]1C(=O)N[C@@H]1CCCc2ccccc21)C1CCCCC1
- DC50 [14]: 0.2 µM

Compound: O=C1CCC(N2C(=O)c3cccc(NCCCCCCCCCC(=O)Nc4ccc(N5Cc6ccc(O)cc6OC5=O)cc4)c3C2=O)C(=O)N1 (centres undefined)
- Emax [5]: 64%

Compound: O=C1CCC(N2C(=O)c3cccc(NCCCCC(=O)Nc4ccc(N5Cc6ccc(O)cc6OC5=O)cc4)c3C2=O)C(=O)N1 (centres undefined)
- Emax [5]: 21%
- Ki [13]: 0.086 µM

Compound: C=C1CC[C@H]2[C@@H](/C=C(\C)C(=O)[C@@]3(O)C[C@H](C)[C@H](O)[C@@H]3[C@H]1OCc1cn(CCOCCOCCOCCNc3cccc4c3C(=O)N(C3CCC(=O)NC3=O)C4=O)nn1)C2(C)C (some centres undefined)
- IC50 [16]: 8.34 µM

Compound: CN[C@@H](C)C(=O)N[C@H](C(=O)N1CCC[C@H]1c1nc(C(=O)c2ccc(F)cc2)cs1)C1CCN(C(=O)c2cnc(N3CCN(CCOc4cc5ncnc(Nc6n[nH]c(C)c6C)c5cc4S(=O)(=O)C(C)(C)C)CC3)nc2)CC1
- pDC50 [1]: 7.9
